These results are taken from PMC11099021, “Mycobacterial biotin synthases require an auxiliary protein to convert dethiobiotin into biotin” (Nature Communications, 2024).

For one assay, the target named is BioB.tb-BsaP (Mycobacterium tuberculosis, UniProt P9WPQ7). In words: biotin formation by LC-MS, Morrison fit. In kind it is biochemical. The text has this:
biotin formation by LC-MS, Morrison fit on BioB.tb-BsaP | acidomycin is indeed a potent inhibitor of BioB.tb displaying an inhibition constant Ki of […]

In another assay the target is T1, BioB.ec (Escherichia coli, UniProt P12996).
T1 sequence (P12996 1-346): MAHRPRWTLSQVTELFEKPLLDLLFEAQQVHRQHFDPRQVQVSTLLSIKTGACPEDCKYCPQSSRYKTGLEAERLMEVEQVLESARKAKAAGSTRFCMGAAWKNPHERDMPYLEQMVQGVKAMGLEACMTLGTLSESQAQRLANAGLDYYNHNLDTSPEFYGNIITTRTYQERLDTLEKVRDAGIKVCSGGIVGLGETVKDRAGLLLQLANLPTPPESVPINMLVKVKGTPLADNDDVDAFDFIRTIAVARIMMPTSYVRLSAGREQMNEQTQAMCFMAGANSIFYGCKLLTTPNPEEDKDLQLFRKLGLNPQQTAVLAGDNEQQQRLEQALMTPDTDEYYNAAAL
In words: biotin formation by LC-MS. Conditions: 100 µM DTB, 100 µM SAM; FldA/FNR/NADPH, MtnN; pH 8.0; 37 °C; anaerobic; without BsaP. In kind it is biochemical.

Another assay addresses T2, BsaP (Mycobacterium tuberculosis, UniProt P9WLT6).
T2 chain: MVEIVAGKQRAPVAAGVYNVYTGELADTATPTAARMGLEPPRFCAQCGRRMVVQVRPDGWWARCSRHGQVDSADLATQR

By Ki is commonly meant the dissociation constant of the complex between target and ligand, obtained from inhibition or displacement. In turn, `O=C(O)CCCCC[C@@H]1NC(=O)CS1` [acidomycin] registered an inhibition constant (Ki) on BioB.tb-BsaP of 110 nM.

`C[C@@H]1NC(=O)N[C@@H]1CCCCCC(=O)O` [DTB]: the “biotin formation by LC-MS” value on BioB.ec is reported as “No difference in biotin production was observed when BsaP was added to BioB.ec”.

B1: BioB (protein)
chain: TQAATRPTNDAGQDGGNNSDILVVARQQVLQRGEGLNQDQVLAVLQLPDDRLEELLALAHEVRMRWCGPEVEVEGIISLKTGGCPEDCHFCSQSGLFASPVRSAWLDIPSLVEAAKQTAKSGATEFCIVAAVRGPDERLMAQVAAGIEAIRNEVEINIACSLGMLTAEQVDQLAARGVHRYNHNLETARSFFANVVTTHTWEERWQTLSMVRDAGMEVCCGGILGMGETLQQRAEFAAELAELGPDEVPLNFLNPRPGTPFADLEVMPVGDALKAVAAFRLALPRTMLRFAGGREITLGDLGAKRGILGGINAVIVGNYLTTLGRPAEADLELLDELQMPLKALNASL
One may read the Kd as the free concentration of one partner at which half of the binding sites on the other are occupied at equilibrium, for simple one-to-one binding. Read a low Kd as higher affinity. B1 showed a Kd with BsaP of 950 nM.
